Measured values as given in US20070031511A1, “Method of treatment” (priority 2003, published 2007).
Where two headings read alike, the source gives them in different places. Where a SMILES comes first, the peptide text is derived from it. Where no end group is shown, it is not given here. [ ]: non-standard residue; d: D form. pGlu = O=C1CC[C@@H](C(=O)O)N1

How the values were obtained:
hepatoma cell lines = conditions: Kicic et al, 2001; cited from earlier work
[1] = Quenching of peptide tryptophan fluorescence by ferric ions (stoichiometry, apparent Kd); assay type: binding; conditions: pH 4.0; mean ± S.E.; read-out: Kd (μM) of ferric ion binding (amidated gastrin17 and related peptides)
Method: The tryptophan fluorescence of peptide solutions was measured in 3 mL quartz cuvettes thermostated at […], with a Spex Fluorolog-2 spectrofluorimeter (Spex Industries, Edison, N.J.), with the excitation and emission wavelengths set at 290 and 345 nm, respectively. The quenching of tryptophan fluorescence induced by the binding of metal ions was used to calculate the fraction of binding sites occupied, fa: fa=(yf−y)/(yf−yb) where y is the fluorescence signal at a given concentration of metal ions and yb and yf are the signals when the binding sites are fully occupied and unoccupied, respectively (Winzor et al, 1995). The stoichiometry, p, and apparent dissociation constant, Kd, were then obtained, using the program Sigmastat (Jandel Scientific, San Rafael, Calif.), from the intercept and slope of a linear regression of the data transformed as described by Winzor and Sawyer (1995) in terms of the equation Cs/fa=pCa+Kd/(1−fa) where Cs is the total concentration of metal ions, and Ca is the total concentration of glycine-extended gastrin17. For the bismuth binding studies, the data was fitted by non-linear regression with the program Sigmaplot (Jandel Scientific, San Rafael, Calif.) to the equations for models with one binding site or two binding sites with identical affinities: fa=x/(Kd1+x) or to the model with two binding sites with different affinities: fa=(Kd1·x+Kd2·x+2x^2)/2(Kd1·Kd2+Kd1·x+Kd2·x+x^2) where x is the concentration of free metal ions, Kd1 is the first site dissociation constant and Kd2 is the second site dissociation constant. For the one-site model the value of x at any given total concentration of metal ions was obtained by exact solution of the appropriate quadratic (Malby et al, 2001). For the two-site models the value of x was obtained by an iterative Newton-Raphson procedure (Linse et al, 1991). Absorption Spectroscopy
The tryptophan fluorescence of progastrin6-80, glycine-extended gastrin17 and related peptides was measured in the presence of increasing concentrations of ferric ions in 10 mM sodium acetate, pH 4.0, 100 mM NaCl, 0.005% Tween 20. […] Values from the indicated number of independent experiments were combined to obtain the mean values (±S.E.) presented above. No binding of ferric ions to Ggly1-4 or Ggly12-18 was observed.
The tryptophan fluorescence of amidated gastrin17 and related peptides was measured in the presence of increasing concentrations of ferric ions at pH 4.0 (8). Values of the stoichiometry and the apparent dissociation constant (Kd) were obtained from linear transformations of the data presented in FIG. 20A by least squares fitting. Values from the indicated number of independent experiments were combined to obtain the mean values (±S.E.) presented above.

CCK-2 receptor [2] = molecular target: T1, CCK-2 receptor (Homo sapiens, UniProt P32239); test: [125I]-BH-CCK8 displacement, CCK-2 receptor on transiently transfected COS-7 cells; assay type: binding; set-up: COS-7 cells transiently transfected with CCK-2 receptor cDNA; expressed in transfected cells; host or cells: COS-7; conditions: for % Maximum Binding (COS-7): binding in the absence of competitor, fitted, mean ± S.E.; for Predicted ordinate intercept, FIG. 21: single experiment; for Ratio IC50 mutant/IC50 Gamide: transfected COS-7 cells
T1 sequence (P32239 1-447): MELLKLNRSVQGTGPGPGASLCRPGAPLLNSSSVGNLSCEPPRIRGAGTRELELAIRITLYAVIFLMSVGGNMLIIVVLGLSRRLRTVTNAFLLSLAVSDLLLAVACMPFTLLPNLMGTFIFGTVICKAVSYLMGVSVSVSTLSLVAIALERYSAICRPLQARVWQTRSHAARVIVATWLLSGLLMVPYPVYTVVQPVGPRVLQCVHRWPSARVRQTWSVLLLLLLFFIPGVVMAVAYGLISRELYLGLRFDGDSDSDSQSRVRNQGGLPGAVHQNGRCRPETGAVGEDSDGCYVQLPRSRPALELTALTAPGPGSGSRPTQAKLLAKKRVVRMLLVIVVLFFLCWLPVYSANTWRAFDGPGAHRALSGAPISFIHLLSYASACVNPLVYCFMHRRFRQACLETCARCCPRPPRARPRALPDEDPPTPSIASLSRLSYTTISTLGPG
Method: (§1) Non-specific binding was evaluated with […] of unlabelled CCK8. Incubation was stopped by adding 2 ml of ice-cold PBS containing 2% bovine serum albumin. After centrifugation, supernatants were removed and the radioactivity bound to the cell membranes was measured in a γ-counter (LKB, Wallac, Finland).
The lines of best fit shown in FIG. 21 were obtained by nonlinear regression to a single site model with the program Sigmaplot.

CCK-2 receptor [3] = molecular target: T1, CCK-2 receptor; test: Gamide-stimulated inositol phosphate production in COS-7 cells transfected with the CCK-2 receptor; assay type: cell-based; set-up: COS-7 cells transiently transfected with CCK-2 receptor cDNA; expressed in transfected cells; host or cells: COS-7; conditions: for Stimulation of inositol phosphate production: 10 nM peptide
Method: (§2) Intracellular inositol phosphate production was determined as described previously (Qian et al, 1993). IMGE-5 cells (10^5 cells/ml) were plated in 24-multiwell culture plates in DMEM supplemented with 10% FBS, 200 IU/ml penicillin and 200 μg/ml streptomycin. 24 h later, cells were incubated with DMEM supplemented with antibiotics and Myo-[2-^3H]inositol (2.5 μCi/well) and shifted to 39° C. for 16 h. Cells were then washed with pre-warmed DMEM and incubated (20-30 minutes, 37° C.) with DMEM supplemented with 20 mM LiCl. Loaded cells were then washed in 1 ml of IP buffer (135 mM NaCl, 20 mM N-(2-hydroxyethyl)piperazine-N′-(2-ethanesulfonic acid), 2 mM CaCl2, 1.2 mM MgSO4, 1 mM ethylene glycol-bis(2-aminoethylether)-N,N,N′,N′-tetraacetic acid, 10 mM LiCl, and 0.5% bovine serum albumin, pH 7.45) and incubated with or without agonist in a final volume of 0.5 ml of IP buffer. After 1-h incubation at 37° C., the reaction was stopped by removing the incubation medium and adding 1 ml of a mixture of ethanol/HCl (2000:1; v/v). One ml of each aliquot was applied to a column containing 1.6 ml of a 1:2 (v/v) Dowex AG-1-X8 anion exchange resin in distilled water. The columns were washed with 4 ml of distilled water, followed by 4 ml of 40 mM HCOONH4, and inositol phosphates were eluted with 4 ml of 1 M HCOONH4. The radioactivity of each eluate was counted after addition of Complete phase combining system solution (Amersham, UK). For the positive control, IMGE-5 cells were incubated with a combination of 30 mM NaF and 10 μM AlCl3 under the same experimental conditions.
Gamide-stimulated inositol phosphate production was measured in COS-7 cells transfected with the CCK-2 receptor. […] Bismuth ions alone had no effect on inositol phosphate production in CCK-2 receptor-transfected COS-7 cells and HT29 cells, even at the highest concentration tested.
We then investigated the role of the individual glutamates in biological activity. The effects of the mutants GamideE7A and GamideE8,9A on inositol phosphate production in COS-7 cells transiently transfected with the CCK-2 receptor were compared.

CCK-2 receptor [4] = molecular target: T1, CCK-2 receptor; test: [125I]-BH-CCK8 displacement, CCK-2 receptor on Jurkat cells; assay type: binding; conditions: for Ratio IC50 mutant/IC50 Gamide: T-lymphoblastoid Jurkat cells; for % Maximum Binding (Jurkat): binding in the absence of competitor, fitted, mean ± S.E.
Method: as §1

[5] = tested on: HT29 human colorectal carcinoma cells; test: Ggly-stimulated inositol phosphate production in HT29 cells; assay type: cell-based; conditions: HT29 cells
Method: as §2
Ggly-stimulated inositol phosphate production was measured in HT29 human colorectal carcinoma cells.

IMGE-5 cells = test: IMGE-5 cell proliferation, MTT assay; assay type: cell-based, mice
Method: The IMGE-5 cell line was established from the gastric mucosa of mice transgenic for a temperature-sensitive mutant of the SV40 large T antigen (Hollande et al, 2001). IMGE-5 cells were generally grown at 33° C. in DMEM containing 1 unit/ml γ-interferon, 10% FBS, 100 U/ml penicillin, and 100 μg/ml streptomycin (permissive conditions). For all experiments, cells were transferred to 39° C. in the same medium without […] (non-permissive conditions), where they display differentiated characteristics such as expression of functional adherens and tight junctions. All experiments have been performed on cells between passages 20 and 35.
A colorimetric assay was used to measure cell proliferation. Briefly, IMGE-5 cells were seeded in a 96-well plate at a density of 10^4 cells/well in DMEM containing 10% FBS and antibiotics. The following day, cells were synchronized in Go by incubation for 24 h in the same medium lacking FBS. The medium was replaced the next day with fresh medium containing 1% FBS and antibiotics and the peptides under investigation, and incubation was continued for 72 h. 15 μl of 5 mg/ml 3-(4,5-dimethylthiazol-2-yl)-2-5-diphenyltetrazolium bromide (MTT, Sigma, St Louis Mo.) was added per well, and the plate was incubated at 37° C. for 4 h before the medium was discarded. 200 μl 40 mM HCl in isopropanol was added to lyse the cells, and the absorbance at 570 nm was read on a BioRad Model 550 Microplate reader (BioRad, Hercules, Calif.).

[6] = pH 4.0; Ref. 8 given in table; read-out: Kd (μM), apparent dissociation constant for ferric ions; cited from earlier work

Cc1c(O)c(=O)ccn1C [1,2-dimethyl-3-hydroxypyridin-4-one]
Inhibition of proliferation of hepatoma cell lines in vitro (hepatoma cell lines): effective inhibitors

CSCC[C@H](NC(=O)[C@H](Cc1c[nH]c2ccccc12)NC(=O)CNC(=O)[C@H](Cc1ccc(O)cc1)NC(=O)[C@H](C)NC(=O)[C@H](CCC(=O)O)NC(=O)[C@H](C)NC(=O)[C@H](C)NC(=O)[C@H](CCC(=O)O)NC(=O)[C@H](CCC(=O)O)NC(=O)[C@H](CC(C)C)NC(=O)[C@H](Cc1c[nH]c2ccccc12)NC(=O)[C@@H]1CCCN1C(=O)CNC(=O)[C@@H]1CCC(=O)N1)C(=O)N[C@@H](CC(=O)O)C(=O)N[C@@H](Cc1ccccc1)C(N)=O [GamideE8, 9A] ([pGlu]GPWLEEAAEAYGWMDF-NH2)
Kd [1]: 0.16 ± 0.06 µM
% Maximum Binding (COS-7) (CCK-2 receptor [2]): 98.4 ± 2.1%
Predicted ordinate intercept, FIG. 21 (CCK-2 receptor [2]): 91.0%
Ratio IC50 mutant/IC50 Gamide (CCK-2 receptor [2]): 4.1
Stimulation of inositol phosphate production (CCK-2 receptor [3]): No significant difference was observed in the extent of stimulation
Ratio IC50 mutant/IC50 Gamide (CCK-2 receptor [4]): 2.2
% Maximum Binding (Jurkat) (CCK-2 receptor [4]): 97.8 ± 9.0%

Cc1ncc(CO)c(C=NNC(=O)c2ccncc2)c1O [pyridoxal isonicotinoyl hydrazone]
Inhibition of proliferation of hepatoma cell lines in vitro (hepatoma cell lines): effective inhibitors

CSCC[C@H](NC(=O)[C@H](Cc1c[nH]c2ccccc12)NC(=O)CNC(=O)[C@H](Cc1ccc(O)cc1)NC(=O)[C@H](C)NC(=O)[C@H](CCC(=O)O)NC(=O)[C@H](CCC(=O)O)NC(=O)[C@H](CCC(=O)O)NC(=O)[C@H](C)NC(=O)[C@H](CCC(=O)O)NC(=O)[C@H](CC(C)C)NC(=O)[C@H](Cc1c[nH]c2ccccc12)NC(=O)[C@@H]1CCCN1C(=O)CNC(=O)[C@@H]1CCC(=O)N1)C(=O)N[C@@H](CC(=O)O)C(=O)N[C@@H](Cc1ccccc1)C(N)=O [GamideE7A] ([pGlu]GPWLEAEEEAYGWMDF-NH2)
Kd [1]: 0.17 ± 0.03 µM
% Maximum Binding (COS-7) (CCK-2 receptor [2]): 92.0 ± 1.0%
Predicted ordinate intercept, FIG. 21 (CCK-2 receptor [2]): 91.6%
Ratio IC50 mutant/IC50 Gamide (CCK-2 receptor [2]): 1.4
Stimulation of inositol phosphate production (CCK-2 receptor [3]): No significant difference was observed in the extent of stimulation
Ratio IC50 mutant/IC50 Gamide (CCK-2 receptor [4]): 2.4
% Maximum Binding (Jurkat) (CCK-2 receptor [4]): 96.7 ± 4.6%

[F][Al-]([F])([F])[F] [AlF4^−]
Increase in inositol phosphate production (CCK-2 receptor [3]; COS-7 cells transfected with the CCK-2 receptor, 10 μM AlF4−, 10 nM Gamide): 5 fold
Increase in inositol phosphate production [5]: 2.6 fold

ZGPWLE5A ([pGlu]GPWLEEEEEA; listed as Homo sapiens) [Ggly1-11]
Stimulation of IMGE-5 cell proliferation (IMGE-5 cells; MTT assay, peptides shown at 1 nM (FIGS. 7A, 8A)): did increase proliferation, but to a significantly lesser extent than Ggly
Reduction of activity relative to Ggly (IMGE-5 cells; cell proliferation or wound healing assays (FIG. 7)): approximately 50%
Kd [6]: 1.2 ± 0.04 µM

O=C(O)CN(CCN(CC(=O)O)CC(=O)O)CC(=O)O [EDTA, ethylene diamine tetraacetic acid]
Inhibition of proliferation of hepatoma cell lines in vitro (hepatoma cell lines): ineffective

O=C(O)CN(CCN(CC(=O)O)CC(=O)O)CCN(CC(=O)O)CC(=O)O [DTPA, diethylene triamine pentaacetic acid]
Inhibition of proliferation of hepatoma cell lines in vitro (hepatoma cell lines): the best inhibitor of all those tested
